Test results: patent publication US9120820B2, “Fluorescent molecular probes for use in assays that measure test compound competitive binding with SAM-utilizing proteins” (CAYMAN CHEMICAL COMPANY, INCORPORATED, priority 2011, dated 2015)

What was measured:
[1] = target: T1, NSD2 (Homo sapiens, UniProt O96028); test: Fluorescence polarization saturation binding of fluorescent probe to NSD2
T1 construct: purchased Cayman 10758
T1 sequence (O96028 1-1365): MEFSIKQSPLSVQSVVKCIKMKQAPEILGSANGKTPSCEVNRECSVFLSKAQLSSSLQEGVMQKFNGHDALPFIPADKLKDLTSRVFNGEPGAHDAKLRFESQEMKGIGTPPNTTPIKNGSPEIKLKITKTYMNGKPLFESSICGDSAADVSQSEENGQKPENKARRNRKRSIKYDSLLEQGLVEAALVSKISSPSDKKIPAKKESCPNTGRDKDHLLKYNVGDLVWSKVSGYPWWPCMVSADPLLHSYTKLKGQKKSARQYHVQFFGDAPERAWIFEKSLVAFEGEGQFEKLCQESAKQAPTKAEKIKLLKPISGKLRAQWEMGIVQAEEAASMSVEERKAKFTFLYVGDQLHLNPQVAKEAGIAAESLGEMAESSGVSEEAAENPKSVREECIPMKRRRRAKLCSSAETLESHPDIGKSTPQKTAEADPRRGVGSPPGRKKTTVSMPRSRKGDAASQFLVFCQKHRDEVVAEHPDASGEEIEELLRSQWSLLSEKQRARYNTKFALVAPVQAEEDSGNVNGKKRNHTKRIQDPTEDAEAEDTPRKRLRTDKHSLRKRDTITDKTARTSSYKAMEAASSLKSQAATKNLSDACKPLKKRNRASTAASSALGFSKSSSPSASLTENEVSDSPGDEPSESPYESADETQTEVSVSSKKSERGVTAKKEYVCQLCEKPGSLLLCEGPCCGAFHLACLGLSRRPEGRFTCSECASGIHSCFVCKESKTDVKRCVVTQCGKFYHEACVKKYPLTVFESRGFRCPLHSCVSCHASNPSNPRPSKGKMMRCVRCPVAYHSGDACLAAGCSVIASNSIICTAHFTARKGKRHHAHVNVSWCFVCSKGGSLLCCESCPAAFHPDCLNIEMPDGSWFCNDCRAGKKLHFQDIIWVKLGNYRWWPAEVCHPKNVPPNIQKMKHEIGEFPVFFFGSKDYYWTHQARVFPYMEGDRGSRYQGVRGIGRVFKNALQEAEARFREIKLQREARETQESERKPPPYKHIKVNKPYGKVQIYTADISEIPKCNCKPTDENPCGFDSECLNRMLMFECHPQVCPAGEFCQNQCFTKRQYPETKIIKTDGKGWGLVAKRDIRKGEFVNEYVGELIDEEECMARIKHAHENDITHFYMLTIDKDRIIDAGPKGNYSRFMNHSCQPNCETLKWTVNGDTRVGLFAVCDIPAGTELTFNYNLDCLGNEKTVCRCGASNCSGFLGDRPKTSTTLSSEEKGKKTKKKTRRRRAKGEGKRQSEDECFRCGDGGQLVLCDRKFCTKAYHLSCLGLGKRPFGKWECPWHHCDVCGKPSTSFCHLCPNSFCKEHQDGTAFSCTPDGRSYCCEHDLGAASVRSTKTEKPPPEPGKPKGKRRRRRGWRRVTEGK
Experimental: Methods: The experiment was performed once, with two replicate wells for all methyltransferases per condition. The sole exception to this is NSD2 (see details below). The assay was performed in a ½ area, black, 96-well plate (Corning #3686) in a final volume of 30 μL. Methyltransferases (Table 1) were serially diluted two-fold in FP buffer (Cayman Catalog #600028) and 15 μL of a given dilution were added per well to the assay plate. Fifteen microliters of sinefungin probe 1A (10 nM) were added to each well, giving a final sinefungin probe 1A concentration of 5 nM. This concentration of sinefungin probe 1A was chosen because it had at least a 10-fold increase in fluorescence (excitation max 575 nm/emission max 615 nm) over background (buffer). The mixture was incubated in the dark at room temperature for 30 minutes and its fluorescence polarization was read using a BioTek Synergy 4.
For NSD2, the assay was performed essentially as above, but with the following changes. The assay was performed in a 20 μL total volume (10 μL NSD2/10 μL sinefungin probe 1) in low-volume, black, 384-well plates (Nunc #264705). The concentrations of sinefungin probe 1A and methyltransferase were identical to that of the 96-well format. The assay was performed once with three replicate wells per condition.

[2] = target: KMT5b (Homo sapiens, UniProt Q4FZB7); test: Fluorescence polarization saturation binding of fluorescent probe to KMT5b; details: saturation-binding format, mean ± SEM, read-out: Sinefungin Probe 1A Affinity
Experimental: (§1) Sinefungin Probe 1A was tested for the ability to bind to 16 proteins, including several non-methlytransferase protein controls (Table 2). This probe binds to 4 methyltransferases (SET7/9, G9a, GLP, MLL) with Kd values <2 μM.

[3] = target: MLL (Homo sapiens, UniProt Q03164); test: Fluorescence polarization saturation binding of fluorescent probe to MLL; details: saturation-binding format, mean ± SEM, read-out: Sinefungin Probe 1A Affinity
Experimental: as §1

Chain of KMT5b (Q4FZB7 whole entry, species assumed): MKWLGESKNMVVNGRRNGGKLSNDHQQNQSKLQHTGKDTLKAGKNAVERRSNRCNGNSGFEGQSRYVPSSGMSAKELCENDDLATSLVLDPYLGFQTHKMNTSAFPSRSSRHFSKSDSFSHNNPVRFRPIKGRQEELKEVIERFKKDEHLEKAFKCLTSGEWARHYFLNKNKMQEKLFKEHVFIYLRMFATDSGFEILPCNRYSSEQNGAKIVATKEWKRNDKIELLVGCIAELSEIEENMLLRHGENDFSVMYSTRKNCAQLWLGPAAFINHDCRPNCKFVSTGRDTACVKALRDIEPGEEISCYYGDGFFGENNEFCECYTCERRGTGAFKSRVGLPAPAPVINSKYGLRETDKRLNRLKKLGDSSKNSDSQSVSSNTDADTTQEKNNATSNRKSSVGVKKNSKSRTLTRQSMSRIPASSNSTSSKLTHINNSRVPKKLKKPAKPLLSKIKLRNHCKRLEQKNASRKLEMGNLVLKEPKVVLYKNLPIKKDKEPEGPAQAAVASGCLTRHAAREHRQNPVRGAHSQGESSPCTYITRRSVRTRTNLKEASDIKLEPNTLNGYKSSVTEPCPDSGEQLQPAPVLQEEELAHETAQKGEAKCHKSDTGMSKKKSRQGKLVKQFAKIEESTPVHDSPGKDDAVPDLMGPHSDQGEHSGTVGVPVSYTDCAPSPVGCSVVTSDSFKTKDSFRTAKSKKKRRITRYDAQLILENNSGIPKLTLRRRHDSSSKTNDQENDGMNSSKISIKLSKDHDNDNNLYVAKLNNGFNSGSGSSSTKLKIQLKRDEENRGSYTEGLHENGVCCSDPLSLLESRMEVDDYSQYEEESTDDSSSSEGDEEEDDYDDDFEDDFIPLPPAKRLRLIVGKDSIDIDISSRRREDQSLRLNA
Chain of MLL (Q03164 3785-3969 limits assumed): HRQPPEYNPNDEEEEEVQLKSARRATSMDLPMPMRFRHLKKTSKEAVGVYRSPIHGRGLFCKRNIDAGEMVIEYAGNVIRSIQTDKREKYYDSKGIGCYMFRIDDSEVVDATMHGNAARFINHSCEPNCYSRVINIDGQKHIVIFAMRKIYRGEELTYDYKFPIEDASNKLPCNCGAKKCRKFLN

Kd ([1]; NSD2, saturation-binding format, read-out: Sinefungin Probe 1A Affinity): > 2000 nM | Kd [2]: 6100 ± 800 nM | Kd [3]: 750 ± 65 nM
SMILES: Nc1ncnc2c1ncn2[C@@H]1O[C@H](C[C@@H](N)CC[C@H](N)C(=O)O)[C@@H](OCc2cnnn2CCCCCCNC(=O)OC2CCN(C(=O)c3ccccc3C3=c4cc5c6c(c4Oc4c3cc3c7c4CCCN7CCC3)CCC[N+]=6CCC5)CC2)[C@H]1O [Sinefungin Probe 1A]
measurable affinity for the probe ([1]; Example 8, NSD2, 5 nM probe, 384-well, FIG. 2): only SET7/9 and G9a displayed measurable affinity
